{"source": "paper PMC2584039", "about": "(Molecular Pain, 2008)", "key": {"[1]": {"system": "TRPA1", "design": "method as in Petrus et al. (2007)", "settings": "mouse; ref Petrus et al. (2007); cited from earlier work"}, "[2]": {"biological_target": "T1, human TRPA1 (Homo sapiens, UniProt O75762)", "T1 construct": "Full length human TRPA1 cDNA was purchased from Origene Technologies; host or cells: HEK-293 (Invitrogen Flp-In system, hygromycin B selection)", "T1 sequence (O75762 whole entry)": "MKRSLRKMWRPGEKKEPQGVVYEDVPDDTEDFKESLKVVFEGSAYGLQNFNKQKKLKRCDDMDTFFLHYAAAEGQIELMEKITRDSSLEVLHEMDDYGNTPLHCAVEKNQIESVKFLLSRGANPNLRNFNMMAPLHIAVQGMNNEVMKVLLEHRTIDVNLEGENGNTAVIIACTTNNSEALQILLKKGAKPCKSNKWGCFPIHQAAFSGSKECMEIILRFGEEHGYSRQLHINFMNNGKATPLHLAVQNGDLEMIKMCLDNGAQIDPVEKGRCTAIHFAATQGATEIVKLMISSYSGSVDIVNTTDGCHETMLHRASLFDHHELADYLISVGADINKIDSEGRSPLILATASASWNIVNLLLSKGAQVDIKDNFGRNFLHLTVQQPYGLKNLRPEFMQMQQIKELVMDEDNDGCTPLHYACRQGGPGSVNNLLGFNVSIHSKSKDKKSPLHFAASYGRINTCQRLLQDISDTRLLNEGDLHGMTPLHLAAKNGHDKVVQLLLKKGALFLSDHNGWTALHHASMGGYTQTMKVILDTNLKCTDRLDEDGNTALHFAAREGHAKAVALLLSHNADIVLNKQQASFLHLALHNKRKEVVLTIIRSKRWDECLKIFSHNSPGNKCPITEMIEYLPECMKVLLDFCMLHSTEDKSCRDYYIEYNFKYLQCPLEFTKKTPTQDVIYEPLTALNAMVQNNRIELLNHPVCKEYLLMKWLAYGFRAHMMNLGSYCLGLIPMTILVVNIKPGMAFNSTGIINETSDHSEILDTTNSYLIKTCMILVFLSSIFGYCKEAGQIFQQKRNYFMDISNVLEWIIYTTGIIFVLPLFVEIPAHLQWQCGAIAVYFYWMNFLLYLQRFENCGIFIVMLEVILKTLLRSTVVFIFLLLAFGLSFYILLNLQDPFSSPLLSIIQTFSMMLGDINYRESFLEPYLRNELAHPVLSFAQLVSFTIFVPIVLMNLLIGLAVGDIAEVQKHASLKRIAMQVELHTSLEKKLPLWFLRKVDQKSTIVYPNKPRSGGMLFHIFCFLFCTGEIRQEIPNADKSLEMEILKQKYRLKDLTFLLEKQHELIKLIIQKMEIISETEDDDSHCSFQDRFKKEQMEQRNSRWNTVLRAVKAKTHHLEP", "test": "cell-based"}, "[3]": {"system": "spinal nerve ligation induced mechanical hypersensitivity", "settings": "rat, in vivo"}}, "note": "pEC50, pIC50: −log10 of the molar value."}
{"smiles": "CC(=C\\c1ccc(Cl)cc1)/C(C)=N/O", "note": "[AP18]", "values": [{"measurement": "pIC50", "setting": "[1]", "value": 5.35}]}
{"smiles": "O=C/C=C/c1ccccc1", "note": "[cinnamaldehyde]", "values": [{"measurement": "pEC50", "setting": "[2]", "value": 4.80}]}
{"smiles": "CC(C)C[C@H](CN)CC(=O)O", "note": "[pregabalin]", "values": [{"measurement": "effect on SNL mechanical hypersensitivity vs vehicle", "setting": "[3]", "value": "significant attenuation"}, {"measurement": "percent reversal of SNL-induced mechanical hypersensitivity", "setting": "[3]", "value": 56, "unit": "%"}]}
